Measurements as given in article PMC7182431, “CNGA3 acts as a cold sensor in hypothalamic neurons” (eLife, 2020).

Tests used:
Assay type in all cases: cell-based
mCNGA3 (mouse CNGA3) = biological target: T1, mCNGA3 (mouse CNGA3) (Mus musculus, UniProt A0A6H2E2T0); experiment: inside-out patch clamp, HEK293T, Hill fit
T1 construct: HEK293T (PIEZO1-deleted) cells, also Xenopus oocytes; homomer
T1 sequence (A0A6H2E2T0 1-630): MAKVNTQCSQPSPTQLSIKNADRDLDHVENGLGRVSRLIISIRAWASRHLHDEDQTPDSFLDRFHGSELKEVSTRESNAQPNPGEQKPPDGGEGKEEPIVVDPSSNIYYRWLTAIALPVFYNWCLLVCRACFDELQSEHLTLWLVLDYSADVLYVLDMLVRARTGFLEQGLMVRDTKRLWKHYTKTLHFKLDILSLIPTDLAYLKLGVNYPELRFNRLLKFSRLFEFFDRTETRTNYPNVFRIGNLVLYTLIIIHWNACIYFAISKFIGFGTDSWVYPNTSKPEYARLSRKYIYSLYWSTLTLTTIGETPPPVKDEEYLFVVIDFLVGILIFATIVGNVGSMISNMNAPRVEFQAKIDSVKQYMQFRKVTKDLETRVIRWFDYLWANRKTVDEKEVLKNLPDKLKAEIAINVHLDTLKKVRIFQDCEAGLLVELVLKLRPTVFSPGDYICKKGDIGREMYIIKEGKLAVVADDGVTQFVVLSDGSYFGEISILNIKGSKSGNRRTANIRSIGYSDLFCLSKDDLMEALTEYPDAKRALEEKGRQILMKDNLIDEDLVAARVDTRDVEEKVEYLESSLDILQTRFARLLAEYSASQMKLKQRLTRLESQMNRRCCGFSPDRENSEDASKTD

sqCNGA3 (squirrel CNGA3) = biological target: T2, sqCNGA3 (squirrel CNGA3) (Ictidomys tridecemlineatus, UniProt A0A6H2E3H4); experiment: inside-out patch clamp, HEK293T, Hill fit
T2 construct: pMO vector, no tag stated; HEK293T (PIEZO1-deleted) cells, also Xenopus oocytes; homomer
T2 sequence (A0A6H2E3H4 1-672): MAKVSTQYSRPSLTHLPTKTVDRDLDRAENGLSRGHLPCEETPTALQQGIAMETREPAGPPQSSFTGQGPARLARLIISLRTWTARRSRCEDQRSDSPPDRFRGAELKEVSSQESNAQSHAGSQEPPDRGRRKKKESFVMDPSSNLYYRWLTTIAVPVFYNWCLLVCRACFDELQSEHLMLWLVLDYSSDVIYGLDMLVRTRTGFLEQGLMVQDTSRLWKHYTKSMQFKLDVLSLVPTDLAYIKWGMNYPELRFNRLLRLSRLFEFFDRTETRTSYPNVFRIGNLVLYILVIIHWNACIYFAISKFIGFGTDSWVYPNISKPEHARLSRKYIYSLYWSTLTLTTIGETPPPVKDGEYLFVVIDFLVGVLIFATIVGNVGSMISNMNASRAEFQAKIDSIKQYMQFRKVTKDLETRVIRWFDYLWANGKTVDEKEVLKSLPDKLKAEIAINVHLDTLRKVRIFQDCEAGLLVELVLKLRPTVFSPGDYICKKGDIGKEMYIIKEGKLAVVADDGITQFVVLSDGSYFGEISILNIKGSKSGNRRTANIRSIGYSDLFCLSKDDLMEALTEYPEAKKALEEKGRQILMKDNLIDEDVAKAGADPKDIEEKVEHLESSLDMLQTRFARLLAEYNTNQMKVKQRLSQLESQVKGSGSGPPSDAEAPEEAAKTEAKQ

[1] = biological target: T3, CNGA3-CNGB1 heteromers (mCNGA3 with mCNGB1) (Mus musculus, UniProt A0A6H2E2T0+E1AZ71); experiment: voltage clamp, Xenopus oocytes, inhibition of cold-activated current; details: 100 µM extracellular drug, 1 µM intracellular cGMP, -80 mV, cooling; inhibitor; mixed with CNGA3 homomers
T3 construct: full-length subunits co-expressed in Xenopus oocytes from pMO vector; mixture with CNGA3 homomers likely
T3 sequence (E1AZ71 whole entry, one chain of several): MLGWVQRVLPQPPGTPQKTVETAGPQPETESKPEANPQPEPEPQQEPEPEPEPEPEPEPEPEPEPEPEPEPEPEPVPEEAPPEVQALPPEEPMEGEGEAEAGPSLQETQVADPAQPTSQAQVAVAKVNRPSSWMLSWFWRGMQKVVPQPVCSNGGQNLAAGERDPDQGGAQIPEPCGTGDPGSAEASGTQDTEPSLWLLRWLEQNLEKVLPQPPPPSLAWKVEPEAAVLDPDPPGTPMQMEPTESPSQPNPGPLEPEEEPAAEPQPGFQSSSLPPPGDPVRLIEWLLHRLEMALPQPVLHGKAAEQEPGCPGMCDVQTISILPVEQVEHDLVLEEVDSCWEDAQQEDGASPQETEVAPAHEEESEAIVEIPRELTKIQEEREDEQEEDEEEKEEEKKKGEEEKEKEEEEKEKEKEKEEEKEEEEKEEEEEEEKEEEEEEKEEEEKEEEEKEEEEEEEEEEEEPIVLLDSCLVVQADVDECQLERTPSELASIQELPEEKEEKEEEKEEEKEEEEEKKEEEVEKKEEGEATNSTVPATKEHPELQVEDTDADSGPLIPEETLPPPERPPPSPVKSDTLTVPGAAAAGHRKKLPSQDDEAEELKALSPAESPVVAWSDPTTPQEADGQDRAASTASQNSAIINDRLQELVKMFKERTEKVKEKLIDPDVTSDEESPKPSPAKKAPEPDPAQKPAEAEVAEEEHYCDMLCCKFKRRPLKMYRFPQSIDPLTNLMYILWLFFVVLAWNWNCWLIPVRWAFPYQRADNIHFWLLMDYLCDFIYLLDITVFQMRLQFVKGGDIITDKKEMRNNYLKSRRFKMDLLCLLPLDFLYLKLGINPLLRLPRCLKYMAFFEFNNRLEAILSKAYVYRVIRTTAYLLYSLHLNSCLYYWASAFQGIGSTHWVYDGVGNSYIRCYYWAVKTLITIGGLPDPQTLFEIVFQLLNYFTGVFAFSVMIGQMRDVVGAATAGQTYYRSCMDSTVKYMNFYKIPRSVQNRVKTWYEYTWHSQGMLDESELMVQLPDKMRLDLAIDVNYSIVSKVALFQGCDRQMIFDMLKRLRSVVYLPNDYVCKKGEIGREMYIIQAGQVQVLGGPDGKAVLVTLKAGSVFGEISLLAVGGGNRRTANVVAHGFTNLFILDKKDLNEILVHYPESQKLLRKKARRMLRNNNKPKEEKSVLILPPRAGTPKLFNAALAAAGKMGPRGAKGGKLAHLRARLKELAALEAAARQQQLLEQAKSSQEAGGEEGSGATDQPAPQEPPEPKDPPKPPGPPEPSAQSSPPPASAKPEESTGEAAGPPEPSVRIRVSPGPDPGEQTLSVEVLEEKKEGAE

Structure (SMILES)	EC50 (mCNGA3 (mouse CNGA3))	EC50 (sqCNGA3 (squirrel CNGA3))	inhibition [1]
Nc1nc2c(ncn2[C@@H]2O[C@@H]3COP(=O)(O)O[C@H]3[C@H]2O)c(=O)[nH]1 [cGMP]	21.8 ± 5.48 µM	26.4 ± 1.12 µM	
COc1ccc([C@H]2Sc3ccccc3N(CCN(C)C)C(=O)[C@H]2OC(C)=O)cc1 [l-cis-diltiazem]			CNGA3-CNGB1 heteromers can form a cold-activated l-cis-diltiazem-sensitive ion channel
